Laboratory results as given in article PMC6268586, “Effect of Wine and Vinegar Processing of Rhizoma Corydalis on the Tissue Distribution of Tetrahydropalmatine, Protopine and Dehydrocorydaline in Rats” (Molecules, 2012).
Like-named read-outs stand apart in the source and are kept apart here.

Assay: Tissue distribution of THP, DHC and protopine in rat tissues after gastric gavage administration (HPLC-UV, non-compartmental analysis)
Format: in vivo, Wistar male rats
Details: male, Wistar, po, 4.52 mg/kg; for AUC(0-t): read-out: AUC0–24 h of protopine; for Cmax: read-out: Cmax of protopine; for MRT: read-out: MRT of protopine; for Tmax: read-out: Tmax of protopine
Procedure: The experimental protocol was approved by the University's Animal Ethics Committee. […] Rats had unlimited access to water. Standard food was given until 12 h before the experiments. Rhizoma Corydalis was processed according to Pharmacopoeia of Chinese Medicine and National Guideline of Traditional Chinese Medicinal Plants Processing. Briefly, fresh Rhizoma Corydalis was boiled in water till the pith turn light brown color. Cooked rhizome was sliced into pieces (4 mm, diameter) and dried at 25 °C. Dried slices were mixed with edible vinegar (100:20, rhizome/vinegar, w/v) or yellow wine (100:10, rhizome/wine, w/v) and the slices allowed to completely absorb the vinegar or wine. The soaked slices were then stir-fried in a metallic pan over a low flame till they were completely dry. The processed Rhizoma Corydalis was added with 70% ethanol (1:30 w/v) and sonicated for 1 h at room temperature. The extract was then concentrated to remove the ethanol residue and stored at 4 °C for further use. […] The ethanol extract of the unprocessed Rhizoma Corydalis and THP, DHC and protopine pure compound were used as the controls. Three hundred and sixty healthy rats were used in total and are divided into six groups (Group 1-6, sixty rats per group). Drugs were administrated by gastric gavage method. In order to keep the dose of THP, DHC and protopine constant in each group, the amount of ethanol extract of Rhizoma Corydalis administrated was normalized based on the dose of protopine pure compound used. The dose of THP and DHC pure compound administrated was same with that in the ethanol extract of Rhizoma Corydalis. The details were listed below. […] Rats were administrated with the 70% ethanol extract of unprocessed Rhizoma Corydalis at a dose of 17.75 g extract/kg body weight. […] Rats received the extract of vinegar-processed Rhizoma Corydalis at a dose of 15 g extract/kg rat body weight. Group 3: Rats were administrated with the extract of wine processed Rhizoma Corydalis at a dose of 15.78 g extract/kg body weight. […] Rats received THP pure compound at a dose of 6.45 mg/kg body weight. Group 6: Rats were administrated 26.10 mg of DHC pure compound/kg body weight. […] Brian tissue was further dissected into six parts: cerebrum, cerebellum, diencephalons, brain stem, hippocampus and striatum. All the tissue samples were rinsed with ice-old saline and stored at -20 °C until extraction. Tissue samples were homogenized in three volumes of ice-cold biological saline and centrifuged for 10 min at 10,000 g and 4 °C. An aliquot of the supernatant (0.5 mL) was collected. Liquid-liquid extraction was used to extract THP, DHC and protopine. One hundred microliter of 1.0 μg/mL nuciferin (internal standard) was mixed with 0.5 mL aliquots of the supernatant. […] The supernatant was evaporated completely under the nitrogen stream in a 60 °C water bath. The residue was redissolved in 100 μL of methanol. A CoMetro HPLC system (CoMetro Technology Ltd, South […], NJ, USA) with 6000 PVW detector UV-VIS detector was used. […] Ltd., Liaoning, China). Other chromatographic conditions were: column temperature, 35 °C; mobile phase, acetonitrile-0.1% phosphoric acid (pH 3.0) (30:70 v/v); flow rate, 1 mL/min; wavelength, 280 nm. Pharmacokinetic parameters were estimated by non-compartmental analysis using Equiv Test/PK (Statistical Solutions Ltd., Saugus, MA, USA). The maximum concentration (Cmax) and the time to reach the maximum concentration (Tmax) were directly obtained from the observed value. All data were represented as mean ± SD. Comparison of values between groups was performed using one-way ANOVA followed by Tukey's test for comparisons among four groups.

[1] = diencephalon, rat diencephalons

AUC(0-t) [1]: 3180 ± 70 ng·h/mL
Cmax [1]: 1310 ± 270 ng/mL
MRT [1]: 4.89 ± 0.01 h
Tmax [1]: 2.07 ± 0.21 h
AUC(0-t) (rat brain stem): 2020 ± 420 ng·h/mL
Cmax (rat brain stem): 820 ± 170 ng/mL
MRT (rat brain stem): 3.9 ± 0.14 h
Tmax (rat brain stem): 2.2 ± 0.01 h
AUC(0-t) (rat cerebellum): 3800 ± 830 ng·h/mL
Cmax (rat cerebellum): 1560 ± 320 ng/mL
MRT (rat cerebellum): 4.86 ± 0.08 h
Tmax (rat cerebellum): 2.08 ± 0.01 h
AUC(0-t) (rat cerebrum): 3650 ± 780 ng·h/mL
Cmax (rat cerebrum): 1350 ± 270 ng/mL
MRT (rat cerebrum): 3.93 ± 0.06 h
Tmax (rat cerebrum): 2.1 ± 0.8 h
AUC(0-t) (rat heart): 6230 ± 1560 ng·h/mL
Cmax (rat heart): 1500 ± 450 ng/mL
MRT (rat heart): 5.93 ± 0.02 h
Tmax (rat heart): 5.28 ± 0.42 h
AUC(0-t) (rat hippocampus): 3660 ± 810 ng·h/mL
Cmax (rat hippocampus): 1560 ± 310 ng/mL
MRT (rat hippocampus): 5.23 ± 0.1 h
Tmax (rat hippocampus): 2.09 ± 0.04 h
AUC(0-t) (rat kidney): 13400 ± 2650 ng·h/mL
Cmax (rat kidney): 4420 ± 1310 ng/mL
MRT (rat kidney): 5.53 ± 0.04 h
Tmax (rat kidney): 5.13 ± 0.04 h
AUC(0-t) (rat liver): 27800 ± 6980 ng·h/mL
Cmax (rat liver): 6670 ± 1970 ng/mL
MRT (rat liver): 5.69 ± 0.03 h
Tmax (rat liver): 5.09 ± 0.68 h
AUC(0-t) (rat lung): 50200 ± 12500 ng·h/mL
Cmax (rat lung): 11200 ± 3310 ng/mL
MRT (rat lung): 5.85 ± 0.04 h
Tmax (rat lung): 5.22 ± 0.47 h
AUC(0-t) (rat spleen): 35000 ± 8180 ng·h/mL
Cmax (rat spleen): 7420 ± 2220 ng/mL
MRT (rat spleen): 5.65 ± 0.03 h
Tmax (rat spleen): 5.22 ± 0.05 h
AUC(0-t) (rat striatum): 6420 ± 1520 ng·h/mL
Cmax (rat striatum): 1950 ± 400 ng/mL
MRT (rat striatum): 6.57 ± 0.43 h
Tmax (rat striatum): 2.07 ± 0.08 h
SMILES: CN1CCc2cc3c(cc2C(=O)Cc2ccc4c(c2C1)OCO4)OCO3 [protopine]
